The subject of this experiment is SA 9218. Description: MIC by standard agar dilution method. Format: cell-based. The conditions noted are these: Mueller Hinton agar, 10^4 to 10^5 cells per spot, incubated overnight at 35° C., lowest concentration that inhibits visible growth. Summed up:
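Agar dilution: two-fold compound dilutions mixed into molten Mueller Hinton agar, spots of ~10^4–10^5 cells from 0.5 McFarland suspension diluted 1:20 in TSB. Incubated overnight at 35 °C; MIC is lowest concentration inhibiting visible growth.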
(Agar dilution tests growth on a series of plates holding different concentrations.)

Converted amounts (≈) assume the structure as drawn.

These results are taken from patent US20050113450A1, “Antibacterial agents” (priority 2002, published 2005).

Regarding `CC1CCC(C)N1S(=O)(=O)c1cccc(C(=O)Nc2ccc(C#N)cc2C(=O)O)c1` (centres unmarked) [PHA-569077], the MIC worked out at 1 µg/mL (≈ 2.34 µM). On to `O=C(Nc1ccc(Cl)cc1C(=O)O)c1cccc(C(=O)C2CCOC2)c1` (centres unmarked), for which the MIC is 128 µg/mL (≈ 342 µM). Molecule `O=C(Nc1ccc(Cl)cc1C(=O)O)c1cccc(C(=O)c2ccc(Cl)cc2)c1` showed an MIC of 4 µg/mL (≈ 9.66 µM). The same measure, in the same setting: under `CC(C)CN(CC(C)C)S(=O)(=O)c1ccc(C(=O)Nc2ccc(C#N)cc2C(=O)O)cc1` [PHA-656811] stands 32 µg/mL (≈ 69.9 µM); under `O=C(Nc1ccc(Cl)cc1C(=O)O)c1cccc(C(=NO)C2CCCO2)c1` (centres unmarked), 16 µg/mL (≈ 41.2 µM); under `O=C(Nc1ccc(C(=O)C2CCCC2)cc1C(=O)O)c1ccc(S(=O)(=O)N2CCc3ccc(Cl)cc32)cc1`, 16 µg/mL (≈ 28.9 µM). As to `O=C(Nc1ccc(Br)cc1C(=O)O)c1cccc(S(=O)(=O)NC2Cc3ccccc3C2)c1`, inhibition of growth (MIC) required 1 µg/mL (≈ 1.94 µM). This MIC is about 16-fold lower than that of the molecule before. Molecule `O=C(Nc1ccc(C(=O)C2CCCC2)cc1C(=O)O)c1cccc(S(=O)(=O)N2CCc3ccc(Cl)cc32)c1` had an MIC of 32 µg/mL (≈ 57.9 µM). Same read-out and setting: under `N#Cc1ccc(NC(=O)c2cccc(S(=O)(=O)N(CCO)Cc3ccccc3)c2)c(C(=O)O)c1` [PHA-656808] stands 64 µg/mL (≈ 133 µM).

`O=C(Nc1ccc(Cl)cc1C(=O)O)c1cccc(C(=O)c2ccc(F)c(F)c2)c1` [PHA-656892]: the MIC was found to be 8 µg/mL (≈ 19.2 µM). On to `O=C(Nc1ccc(-c2ccc(Cl)s2)cc1C(=O)O)c1cccc(S(=O)(=O)N2CCc3cc(Cl)ccc32)c1` [PHA-568206], for which 2 µg/mL (≈ 3.49 µM) was the least that counted as inhibitory (MIC). Take `CC(C)OCCOc1ccc(C(=O)Nc2ccc(Br)cc2C(=O)O)cc1`: the MIC is over 128 µg/mL.

Molecule `COCCOc1cccc(C(=O)Nc2ccc(Br)cc2C(=O)O)c1` had a minimum inhibitory concentration (MIC) of 16 µg/mL (≈ 40.6 µM).

As for `O=C(Nc1ccc(Br)cc1C(=O)O)c1cccc(F)c1`, the minimum inhibitory concentration (MIC) was 64 µg/mL (≈ 189 µM). The same measure, in the same setting: to `N#Cc1ccc(NC(=O)c2ccc(S(=O)(=O)N3CCCC4CCCCC43)cc2)c(C(=O)O)c1` (centres unmarked) [PHA-571249] belongs 16 µg/mL (≈ 34.2 µM); to `O=C(Nc1ccc(Cl)cc1C(=O)O)c1ccc(SCc2ccccc2)c([N+](=O)[O-])c1` [PNU-283604], 4 µg/mL (≈ 9.03 µM); to `COc1ccc(C(=O)Nc2ccc(Br)cc2C(=O)O)cc1S(=O)(=O)Nc1ccc(N2CCOCC2)cc1`, 64 µg/mL (≈ 108 µM). With `CCCNC(c1cccc(C(=O)Nc2ccc(Cl)cc2C(=O)O)c1)c1ccco1` (centres unmarked), the MIC stood at 16 µg/mL (≈ 38.8 µM).

With `N#Cc1ccc(NC(=O)c2ccc3ccccc3c2)c(C(=O)O)c1`, 2 µg/mL (≈ 6.32 µM) was the least that counted as inhibitory (MIC). `CN(CCC#N)S(=O)(=O)c1cccc(C(=O)Nc2ccc(C#N)cc2C(=O)O)c1` [PHA-571271] showed an MIC of 64 µg/mL (≈ 155 µM). This MIC is about 32-fold higher than that of the molecule before. For the molecule `O=C(Nc1ccc(Br)cc1C(=O)O)c1ccc(S(=O)(=O)N2CCCC2)cc1` [PHA-568376], the MIC is 16 µg/mL (≈ 35.3 µM).

For `CCCCCOc1cccc(C(=O)Nc2ccc(Br)cc2C(=O)O)c1`, it took 8 µg/mL (≈ 19.7 µM) to inhibit growth (MIC). The molecule `O=C(Nc1ccc(Br)cc1C(=O)O)c1cccc(OCC2CCOC2)c1` (centres unmarked) registered an MIC of 16 µg/mL (≈ 38.1 µM). In turn, `O=C(Nc1ccc(Cl)cc1C(=O)O)c1ccc(C(=NO)c2cccnc2)cc1` registered an MIC of 32 µg/mL (≈ 80.8 µM). Compared with the last molecule, the MIC is about 2-fold higher. Same read-out and setting: to `COc1ncc(-c2ccc(NC(=O)c3cccc(S(=O)(=O)N4CCc5cc(Cl)ccc54)c3)c(C(=O)O)c2)c(OC)n1` [PHA-568906] belongs 8 µg/mL (≈ 13.4 µM). On to `CCCCCOc1ccc(C(=O)Nc2ccc(C#N)cc2C(=O)O)cc1`, for which the minimal inhibitory concentration (MIC) was 4 µg/mL (≈ 11.4 µM). On the same count and under the same terms, to `O=C(Nc1ccc(Br)cc1C(=O)O)c1cccc(S(=O)(=O)N2CCc3cc(Cl)ccc32)c1` [PNU-288969] belongs 0.25 µg/mL (≈ 0.467 µM); to `Nc1ccc(CCNS(=O)(=O)c2ccc(C(=O)Nc3ccc(Br)cc3C(=O)O)cc2)cc1`, 64 µg/mL (≈ 123 µM); to `O=C(Nc1ccc(Br)cc1C(=O)O)c1ccc(OCc2cccnc2)cc1`, 64 µg/mL (≈ 150 µM). As for `C=CCN(C1CCCC1)S(=O)(=O)c1ccc(C(=O)Nc2ccc(C#N)cc2C(=O)O)cc1` [PHA-571253], the MIC stood at 16 µg/mL (≈ 35.3 µM). `COc1ccc(Cl)cc1NC(=O)Nc1cccc(C(=O)Nc2ccc(Br)cc2C(=O)O)c1` [PHA-713398] returned an MIC of 4 µg/mL (≈ 7.71 µM).

With `N#Cc1ccc(NC(=O)c2cccc(S(=O)(=O)N3CCC3)c2)c(C(=O)O)c1` [PHA-571167], it took 32 µg/mL (≈ 83 µM) to inhibit growth (MIC). Same read-out and setting: to `COc1cccc(C(=O)Nc2ccc(C#N)cc2C(=O)O)c1` [PHA-571151] belongs 8 µg/mL (≈ 27 µM); to `CS(=O)(=O)c1ccc(C(=O)Nc2ccc(Br)cc2C(=O)O)cc1`, 64 µg/mL (≈ 161 µM). `C=Cc1ccc(C(=O)Nc2ccc(Br)cc2C(=O)O)cc1`: the MIC was over 128 µg/mL.

Turning to `N#Cc1ccc(NC(=O)c2cccc(S(=O)(=O)n3ccc4cc(F)ccc43)c2)c(C(=O)O)c1` [PHA-568461], the MIC came to 0.125 µg/mL (≈ 0.27 µM).

On to `CN(c1ccccc1N)S(=O)(=O)c1ccc(C(=O)Nc2ccc(Br)cc2C(=O)O)cc1` [PHA-516113], for which the lowest concentration to inhibit growth (MIC) was 2 µg/mL (≈ 3.97 µM). Against the preceding molecule, the MIC is about 16-fold higher. On the same count and under the same terms, to `N#Cc1ccc(NC(=O)c2cccc(S(=O)(=O)N3CCc4ccccc4C3)c2)c(C(=O)O)c1` [PHA-571269] belongs 16 µg/mL (≈ 34.7 µM). In the case of `Cc1c(C(=O)Nc2ccc(C#N)cc2C(=O)O)cccc1S(=O)(=O)N1CCc2cc(Cl)ccc21` [PHA-728844], the minimum inhibitory concentration (MIC) worked out at 0.25 µg/mL (≈ 0.504 µM). Take `O=C(Nc1ccc(Cl)cc1C(=O)O)c1cccc(C(=NO)c2ccco2)c1` [drawing 1086]: the “SA 9218 MIC” value is 2 µg/mL.

In the case of `O=C(Nc1ccc(Br)cc1C(=O)O)c1ccc(S(=O)(=O)n2ccc3ccccc32)cc1` [PNU-283318], inhibition of growth (MIC) required 0.125 µg/mL (≈ 0.25 µM). On to `CCN(CC)c1ccc(NS(=O)(=O)c2cccc(C(=O)Nc3ccc(Br)cc3C(=O)O)c2)cc1`, for which the MIC was determined as 128 µg/mL (≈ 234 µM). On the same count and under the same terms, to `O=C(COc1ccccc1)c1cccc(C(=O)Nc2ccc(Cl)cc2C(=O)O)c1` [PHA-656882] belongs 16 µg/mL (≈ 39 µM); to `CCC(CC)C(=O)c1ccc(C(=O)Nc2ccc(Cl)cc2C(=O)O)cc1`, 4 µg/mL (≈ 10.7 µM); to `CN(CC(O)c1ccccc1)S(=O)(=O)c1ccc(C(=O)Nc2ccc(C#N)cc2C(=O)O)cc1` (centres unmarked) [PHA-656809], 64 µg/mL (≈ 133 µM). Regarding `COc1cc(C(=O)Nc2ccc(C#N)cc2C(=O)O)cc(OC)c1OC`, the minimum inhibitory concentration (MIC) is 64 µg/mL (≈ 180 µM). Regarding `O=C(Nc1ccc(Cl)cc1C(=O)O)c1cccc(C(=O)c2ccccc2)c1` [PHA-518226], the “SA 9218 MIC” value came out at 2 µg/mL. Molecule `CN(c1ccc(Cl)cc1)S(=O)(=O)c1cccc(C(=O)Nc2ccc(Br)cc2C(=O)O)c1` [PNU-283076] registered a minimal inhibitory concentration (MIC) of 1 µg/mL (≈ 1.91 µM). On the same count and under the same terms, under `CCCNC(c1cccc(C#N)c1)c1cccc(C(=O)Nc2ccc(Cl)cc2C(=O)O)c1` (centres unmarked) stands 8 µg/mL (≈ 17.9 µM); under `O=C(Nc1ccc(Br)cc1C(=O)O)c1ccc(S(=O)(=O)NC2Cc3ccccc3C2)cc1`, 32 µg/mL (≈ 62.1 µM); under `O=C(Nc1ccc(Br)cc1C(=O)O)c1ccc(S(=O)(=O)Nc2ccc(N3CCOCC3)cc2)cc1`, 64 µg/mL (≈ 114 µM). Same read-out and setting: under `O=C(Nc1ccc(Br)cc1C(=O)O)c1ccc(OCCN2C(=O)CCC2=O)cc1` stands over 128 µg/mL. In the case of `N#Cc1ccc(NC(=O)c2ccc(O)cc2)c(C(=O)O)c1`, it took 64 µg/mL (≈ 227 µM) to inhibit growth (MIC). In the case of `O=C(Nc1ccc(-c2cccc(C(F)(F)F)c2)cc1C(=O)O)c1cccc(S(=O)(=O)N2CCc3cc(Cl)ccc32)c1` [PHA-563284], the MIC was 2 µg/mL (≈ 3.33 µM). Against the preceding molecule, the MIC is about 32-fold lower. For `Cc1ncsc1CCOc1cccc(C(=O)Nc2ccc(Br)cc2C(=O)O)c1`, the minimal inhibitory concentration (MIC) was 8 µg/mL (≈ 17.3 µM). Same read-out and setting: to `O=C(Nc1ccc(Br)cc1C(=O)O)c1ccc(NS(=O)(=O)c2ccc(OC(F)(F)F)cc2)cc1` [PHA-708996] belongs 16 µg/mL (≈ 28.6 µM). Molecule `COCC(=O)Nc1ccc(C(=O)Nc2ccc(Br)cc2C(=O)O)cc1` [PHA-708987] returned a minimal inhibitory concentration (MIC) of over 128 µg/mL. For the molecule `O=C(Nc1ccc(Br)cc1C(=O)O)c1cc(F)ccc1F`, the MIC came to 128 µg/mL (≈ 359 µM). Same read-out and setting: under `N#Cc1cccc(NC(=O)Nc2ccc(C(=O)Nc3ccc(Br)cc3C(=O)O)cc2)c1` [PHA-713395] stands over 128 µg/mL.

By MIC is commonly meant the least concentration at which growth counts as inhibited.
